The text below walks through data of publication PMC9917099, “The Mycotoxin Patulin Inhibits the Mitochondrial Carnitine/Acylcarnitine Carrier (SLC25A20) by Interaction with Cys136 Implications for Human Health” (International Journal of Molecular Sciences, 2023).

Data set [1] deals with T1, CAC in intact rat liver mitochondria (Rattus norvegicus, UniProt P97521).
T1 construct: the native protein extracted from rat liver mitochondria; from tissue; host or cells: rat liver mitochondria (Triton X-100 extract)
T1 sequence (P97521 1-301): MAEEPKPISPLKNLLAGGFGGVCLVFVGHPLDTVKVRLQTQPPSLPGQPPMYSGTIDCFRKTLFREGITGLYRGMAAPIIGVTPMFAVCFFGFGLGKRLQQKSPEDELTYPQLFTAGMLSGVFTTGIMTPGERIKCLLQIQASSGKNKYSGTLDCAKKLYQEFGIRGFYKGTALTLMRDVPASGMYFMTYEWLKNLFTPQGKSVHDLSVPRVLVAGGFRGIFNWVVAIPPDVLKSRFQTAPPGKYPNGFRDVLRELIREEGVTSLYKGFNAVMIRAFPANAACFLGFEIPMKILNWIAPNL
Briefly: Treatment of intact rat liver mitochondria, then solubilization, reconstitution in proteoliposomes and carnitine antiport assay. The format is biochemical. The procedure:
Figure 1 Effect of Patulin on the native carnitine/acylcarnitine carrier (CAC). (A) Dose-response analysis of proteoliposomes reconstituted with the CAC extracted from rat liver mitochondria (0.3 mg of total proteins) and incubated with PAT at the indicated concentrations for 30 min, before measuring the transport activity by adding 0.1 mM [^3H] carnitine for 10 min as described in Materials and Methods. The percentage of residual activity compared to control, without PAT treatment, is reported. The values are the means ± SD from three independent experiments. (B) Rat liver mitochondria (5 mg/100 μL) were incubated or not (control) for 60 min, with Patulin (60 μM) or GSH (5 mM) as indicated. Upon treatment, the unreacted drug was removed by washing the mitochondria in PBS 1X and then 0.3 mg mitochondria were solubilized by 3% TX-100, 10 mM PIPES pH 7.0 and reconstituted in proteoliposomes for transport assay as indicated in (A) and Materials and Methods. Black and white bars indicate without or with the addition of 5 mM dithioerythritol (DTE) 1 min before the transport assay to aliquots of each sample.
The effect of PAT on the CAC at 60 µM concentration was also detected in intact rat liver mitochondria. Upon treatment (60 min), the mitochondria were solubilized in Triton X-100 and 0.3 mg of mitochondrial extract were reconstituted in proteoliposomes for testing the transport activity of CAC (see above). […] Aliquots of intact mitochondria incubated with PAT were treated also with reduced GSH to verify whether this physiological SH-reducing agent was able to reverse the mycotoxin-protein interactions.
The recombinant CAC proteins were reconstituted in proteoliposomes as previously described. Rat liver mitochondria after purification, using the standard procedure of cell disruption and differential centrifugation were solubilized with 3% Triton X-100 in a PIPES buffer (10 mM) at pH 7.0. Herein, the mitochondrial extract (0.3 mg) were reconstituted in the liposomes as above described for the mitochondrial CAC recombinant protein, in the absence of reducing agents. The concentration of intraliposomal carnitine was 15 mM in all samples.
For the transport assay, 550 μL of proteoliposomes were passed through a Sephadex G-75 column in order to remove the external substrate. Six hundred μL of the turbid eluate were collected, divided into samples of 100 μL each, and used for transport measurement by the inhibitor-stop method. Transport was started as homoexchange by adding 0.1 mM [^3H]-carnitine to proteoliposomes containing 15 mM carnitine and, at the indicated time interval, stopped by 1.5 mM NEM (N-ethylmaleimide). The inhibitor was added together with the labelled substrate at time zero in the control samples. After finishing the transport reaction, the external radiolabel substrate was removed by gel filtration chromatography (Sephadex G-75), and the intraliposomal radioactivity was measured by liquid scintillation. Transport was measured at 25 °C. The experimental values were corrected by subtracting the controls. Transport rates were measured in 10 min, i.e., within the initial linear range of the time course.

The target of data set [2] is T2, rat CAC C-less mutant (C23V/C58V/C89S/C136V/C155V/C283S) (Rattus norvegicus, UniProt P97521, C136V/C155V/C23V/C283S/C58V/C89S).
T2 construct: made in house; host or cells: E. coli C0214 (pMW7, inclusion bodies)
T2 sequence (P97521 1-301 C23V/C58V/C89S/C136V/C155V/C283S): T1 sequence (P97521 1-301) with C23V, C58V, C89S, C136V, C155V, C283S
Briefly: Carnitine antiport in proteoliposomes, C-less CAC mutant. The format is biochemical. The procedure:
To shed light on the interaction between PAT and CAC and verify if specific Cys residues were involved, transport experiments on the recombinant rat and human WT CAC and CAC’s rat Cys mutants were performed. As in the case of the native protein, transport activities were measured as [^3H]-carnitine/carnitine antiport in proteoliposomes. […] The PAT inhibition of the WT recombinant protein was only slightly greater compared to the native protein, although compounds and other molecular systems that affect the mycotoxin binding to the native CAC were absent (see above). For identifying the residues involved in the PAT interaction, site-directed Cys mutants were tested for inhibition (Figure 2). […] The choice of this last mutant was due to the proximity of C155 to C136 during some steps of the substrate translocation mechanism. […]
For the transport assay, 550 μL of proteoliposomes were passed through a Sephadex G-75 column in order to remove the external substrate. […] After finishing the transport reaction, the external radiolabel substrate was removed by gel filtration chromatography (Sephadex G-75), and the intraliposomal radioactivity was measured by liquid scintillation. Transport was measured at 25 °C. […] Transport rates were measured in 10 min, i.e., within the initial linear range of the time course.

A further data set concerns cell viability. Also on record: method as in PMID 25098256. The settings on record: 60 µM; cited from earlier work.

Positions count from the first letter of the chain named.

For `O=C1C=C2C(=CCOC2O)O1` (stereo not shown) [PAT, 4-hydroxy-4H-furo [3,2c] pyran-2 [6H] -one], the inhibition at 60 µM in data set [1] (60 µM PAT, 60 min, intact rat liver mitochondria, read-out: inhibition of CAC transport activity compared to control) is roughly 50%. Also, in data set [1] (60 µM PAT, then 5 mM GSH), the “recovery of transport activity on addition of GSH after PAT treatment” value is listed as “did not lead to a recovery”. The “reversal of PAT binding by DTE” value in data set [1] (5 mM DTE added 1 min before transport assay) is “No reverse binding”. Besides, the “effect of GSH added to mitochondria before PAT incubation on PAT inhibition” value in data set [1] (5 mM GSH before 60 µM PAT) is recorded as “prevented”. The compound further displayed a 50% inhibitory concentration (IC50) in data set [1] (intact rat mitochondria) of 60 µM. Besides, in data set [2], the “effect on transport activity” value is reported as “no effect”. Also, the “toxicity for cell viability” value in the data set on cell viability is given as “nontoxic range”.
